Key:
Histamine H1 receptor = Histamine H1 receptor (Homo sapiens, UniProt P35367); experiment: biochemical; format: cell-based, HEK-293T
[1] = Displacement of [3H]mepyramine from human N-terminal hemagglutinin-tagged histamine H1 receptor I454(7.39)F mutant expressed in HEK293T cells after 4 hrs by microbeta liquid scintillation counting analysis; format: cell-based; settings: hek-293t
[2] = Displacement of [3H]mepyramine from human N-terminal hemagglutinin-tagged histamine H1 receptor I454(7.39)T mutant expressed in HEK293T cells after 4 hrs by microbeta liquid scintillation counting analysis; format: cell-based; settings: hek-293t

Chain of Histamine H1 receptor (P35367 whole entry): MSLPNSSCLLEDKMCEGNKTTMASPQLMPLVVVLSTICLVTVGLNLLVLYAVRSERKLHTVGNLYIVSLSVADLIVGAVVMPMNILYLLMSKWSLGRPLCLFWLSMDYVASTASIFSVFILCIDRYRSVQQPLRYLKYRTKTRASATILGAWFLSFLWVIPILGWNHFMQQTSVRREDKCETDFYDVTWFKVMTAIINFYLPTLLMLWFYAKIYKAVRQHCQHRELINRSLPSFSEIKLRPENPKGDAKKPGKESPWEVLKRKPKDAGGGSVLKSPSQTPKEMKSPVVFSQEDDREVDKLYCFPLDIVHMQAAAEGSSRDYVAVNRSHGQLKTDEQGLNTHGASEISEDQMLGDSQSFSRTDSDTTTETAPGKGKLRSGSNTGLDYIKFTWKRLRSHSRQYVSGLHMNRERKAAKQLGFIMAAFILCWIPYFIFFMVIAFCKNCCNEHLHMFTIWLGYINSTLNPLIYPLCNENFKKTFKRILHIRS

Row | Ki (Histamine H1 receptor) | SMILES | pKi [1] | pKi [2]
1 | 25.1 nM | c1ccc(Cc2ccccc2OCCN2CCCCC2)cc1 |  | 
2 | 1580 nM | NCCOc1ccccc1Cc1ccccc1 |  | 
3 | 6.31 nM | c1ccc(Cc2ccccc2OCCN2CCC2)cc1 |  | 
4 | 2.51 nM | CN1CCC(Oc2ccccc2Cc2ccc(Cl)cc2)CC1 |  | 
5 | 25.1 nM | C[N+]1(C)CCC(Oc2ccccc2Cc2ccccc2)CC1 |  | 
6 | 15.8 nM | O=C(O)/C=C/C(=O)O.c1ccc(Cc2ccccc2OC2CCNCC2)cc1 | 7.4 | 8
7 | 12.6 nM | c1ccc(Cc2ccccc2OCCCN2CCCCC2)cc1 |  | 
8 | 3980 nM | c1ccc(OC2CCNCC2)cc1 |  | 
9 | 12.6 nM | CN(C)CCOc1ccccc1Cc1ccccc1 |  | 
10 | 100 nM | CNCCOc1ccccc1Cc1ccccc1 |  | 
11 | 251 nM | CN1CCC(Oc2ccccc2)CC1 |  | 
12 | 10 nM | c1ccc(Cc2ccccc2OCCCN2CCCC2)cc1 |  | 

Further lines, the compound ahead of its results:

Row | SMILES | Ki (Histamine H1 receptor) | pKi [1] | pKi [2]
13 | CN1CCC(Oc2ccccc2Cc2ccccc2)CC1.O=C(O)/C=C/C(=O)O |  | 8.2 | 8.3
14 | c1ccc(Cc2ccccc2OCCCN2CCC2)cc1 | 7.94 nM |  | 
15 | c1ccc(Cc2ccc(OC3CCNCC3)cc2)cc1 | 10000 nM |  | 
16 | c1ccc(Cc2ccccc2OCCN2CCCC2)cc1 | 15.8 nM |  | 
17 | c1ccc(Cc2ccccc2OCCCN2CCCCCC2)cc1 | 20 nM |  | 
18 | CN(C)CCCOc1ccccc1Cc1ccccc1 | 3.16 nM |  | 
19 | c1ccc(-c2ccccc2OC2CCNCC2)cc1 | 316 nM |  | 
20 | CNCCCOc1ccccc1Cc1ccccc1 | 31.6 nM |  | 
21 | Clc1ccc(Cc2ccccc2OC2CCNCC2)cc1 | 6.31 nM |  | 
22 | c1ccc(Cc2ccccc2OCCN2CCCCCC2)cc1 | 63.1 nM |  | 
23 | c1ccc(Cc2cccc(OC3CCNCC3)c2)cc1 | 1580 nM |  | 
24 | NCCCOc1ccccc1Cc1ccccc1 | 316 nM |  | 
